In ChEMBL document CHEMBL1156230, “Identification of phenylsulfone-substituted quinoxaline (WYE-672) as a tissue selective liver X-receptor (LXR) agonist” (J Med Chem, 2010):
The source made the active and inactive calls. The calls are words filed in the database; no cut-off is given here.

Experiments:
Mus musculus [1] = assay: Antiatherosclerotic activity against high fat/high cholesterol fed LDLR-deficient mouse assessed as ldlr gene regulation at 0.6 mg/kg administered with diet for 7 days by Experion chip analysis; type: functional, organism-based; design: dose 0.6 mg/kg
[2] = target: T1, Bile acid receptor (Homo sapiens) (UniProt Q96RI1); assay: Binding affinity to FXR
T1 sequence (whole entry): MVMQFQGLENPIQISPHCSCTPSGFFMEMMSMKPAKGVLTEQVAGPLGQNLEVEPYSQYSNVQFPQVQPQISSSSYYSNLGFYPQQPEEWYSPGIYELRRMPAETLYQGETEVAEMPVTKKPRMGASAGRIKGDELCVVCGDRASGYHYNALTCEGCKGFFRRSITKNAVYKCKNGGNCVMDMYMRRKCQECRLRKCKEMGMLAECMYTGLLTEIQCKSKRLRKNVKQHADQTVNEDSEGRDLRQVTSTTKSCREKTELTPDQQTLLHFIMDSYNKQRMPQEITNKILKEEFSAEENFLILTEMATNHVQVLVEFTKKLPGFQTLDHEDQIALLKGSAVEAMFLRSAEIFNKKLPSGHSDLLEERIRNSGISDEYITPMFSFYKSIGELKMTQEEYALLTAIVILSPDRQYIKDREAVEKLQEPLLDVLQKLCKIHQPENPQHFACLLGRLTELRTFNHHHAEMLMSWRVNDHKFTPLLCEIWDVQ

[3] = target: T2, Glucocorticoid receptor (Homo sapiens) (UniProt P04150); assay: Binding affinity to glucocorticoid receptor
T2 sequence (whole entry): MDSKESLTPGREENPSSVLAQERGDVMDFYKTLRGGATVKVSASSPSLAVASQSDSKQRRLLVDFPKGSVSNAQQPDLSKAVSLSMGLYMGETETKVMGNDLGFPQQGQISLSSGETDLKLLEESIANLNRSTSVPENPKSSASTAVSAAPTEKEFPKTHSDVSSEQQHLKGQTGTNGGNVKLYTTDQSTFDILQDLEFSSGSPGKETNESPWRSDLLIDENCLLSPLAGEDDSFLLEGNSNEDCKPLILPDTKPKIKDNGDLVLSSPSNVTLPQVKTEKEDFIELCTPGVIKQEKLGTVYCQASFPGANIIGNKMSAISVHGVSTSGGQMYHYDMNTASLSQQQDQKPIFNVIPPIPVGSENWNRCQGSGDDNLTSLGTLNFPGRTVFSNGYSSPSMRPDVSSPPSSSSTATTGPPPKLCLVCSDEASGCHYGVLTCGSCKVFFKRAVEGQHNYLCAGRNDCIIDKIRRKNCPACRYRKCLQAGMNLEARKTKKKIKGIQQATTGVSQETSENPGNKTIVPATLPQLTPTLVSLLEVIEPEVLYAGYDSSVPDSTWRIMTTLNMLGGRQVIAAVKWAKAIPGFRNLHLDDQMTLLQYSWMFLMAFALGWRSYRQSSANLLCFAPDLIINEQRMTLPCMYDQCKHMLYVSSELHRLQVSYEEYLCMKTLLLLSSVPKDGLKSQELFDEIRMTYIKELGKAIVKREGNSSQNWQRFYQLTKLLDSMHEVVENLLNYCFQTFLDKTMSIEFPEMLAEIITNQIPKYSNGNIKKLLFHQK

[4] = target: Oxysterols receptor LXR-beta (Homo sapiens, UniProt P55055)
THP-1 = assay: Induction of [3H]cholesterol efflux in human THP1 cells assessed as lipid accumulation relative to T0901317; type: functional
[5] = target: T3, Nuclear receptor subfamily 1 group I member 2 (Homo sapiens, UniProt O75469); assay: Binding affinity to PXR
T3 sequence (O75469 whole entry): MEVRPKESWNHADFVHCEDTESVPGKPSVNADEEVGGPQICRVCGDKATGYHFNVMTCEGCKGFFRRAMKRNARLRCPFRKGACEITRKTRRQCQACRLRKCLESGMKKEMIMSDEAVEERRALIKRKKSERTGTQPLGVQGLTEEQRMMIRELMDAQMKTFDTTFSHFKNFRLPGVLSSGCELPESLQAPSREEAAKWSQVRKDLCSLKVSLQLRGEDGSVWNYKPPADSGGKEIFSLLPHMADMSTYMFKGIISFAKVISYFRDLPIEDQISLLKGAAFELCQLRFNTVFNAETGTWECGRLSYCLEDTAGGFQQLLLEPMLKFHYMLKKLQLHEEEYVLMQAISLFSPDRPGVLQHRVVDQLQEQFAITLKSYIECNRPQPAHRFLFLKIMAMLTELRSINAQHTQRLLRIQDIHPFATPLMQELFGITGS

[6] = Plasma concentration in high fat/high cholesterol fed LDLR-deficient mouse at 0.6 mg/kg, qd administered with diet for 8 weeks measured after 3 hrs of last dose; type: ADME, organism-based; design: dose 0.6 mg/kg; conditions: po
[7] = target: T4, Androgen receptor (Homo sapiens) (UniProt P10275); assay: Binding affinity to androgen receptor
T4 sequence (whole entry): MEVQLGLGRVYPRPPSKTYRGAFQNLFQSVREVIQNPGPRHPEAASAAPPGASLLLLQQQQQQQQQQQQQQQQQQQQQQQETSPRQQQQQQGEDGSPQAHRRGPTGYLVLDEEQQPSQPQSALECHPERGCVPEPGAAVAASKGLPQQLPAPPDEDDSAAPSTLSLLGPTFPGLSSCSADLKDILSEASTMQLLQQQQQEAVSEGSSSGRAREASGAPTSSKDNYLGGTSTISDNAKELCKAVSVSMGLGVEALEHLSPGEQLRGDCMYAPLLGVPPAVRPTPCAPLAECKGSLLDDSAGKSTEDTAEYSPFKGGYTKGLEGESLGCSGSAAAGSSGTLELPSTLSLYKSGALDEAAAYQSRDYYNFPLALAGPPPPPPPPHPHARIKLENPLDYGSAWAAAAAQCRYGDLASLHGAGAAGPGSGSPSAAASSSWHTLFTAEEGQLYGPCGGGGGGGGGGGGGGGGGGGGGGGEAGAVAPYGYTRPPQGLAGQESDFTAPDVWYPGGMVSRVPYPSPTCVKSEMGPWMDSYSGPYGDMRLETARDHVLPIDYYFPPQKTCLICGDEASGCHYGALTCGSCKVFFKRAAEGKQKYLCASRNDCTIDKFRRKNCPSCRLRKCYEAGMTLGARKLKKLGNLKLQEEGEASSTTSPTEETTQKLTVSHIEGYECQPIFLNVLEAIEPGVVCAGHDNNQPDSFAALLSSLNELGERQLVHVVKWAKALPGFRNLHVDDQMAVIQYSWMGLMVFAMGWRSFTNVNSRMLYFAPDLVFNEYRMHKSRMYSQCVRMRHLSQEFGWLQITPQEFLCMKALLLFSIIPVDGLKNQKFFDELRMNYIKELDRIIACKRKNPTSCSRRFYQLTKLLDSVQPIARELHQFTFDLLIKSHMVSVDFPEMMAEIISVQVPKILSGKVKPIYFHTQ

[8] = Tmax in C57 mouse at 10 mg/kg, po; type: ADME, organism-based; design: dose 10 mg/kg, route oral; conditions: in vivo
Mus musculus [9] = assay: Antiatherosclerotic activity against high fat/high cholesterol fed LDLR-deficient mouse assessed as reduction in aortic arch lesion burden at 3 mg/kg/day administered with diet relative to control; type: functional, Pharyngeal arch artery; design: scale not given: the % may be the effect or the level left
[10] = Plasma concentration in high fat/high cholesterol fed LDLR-deficient mouse at 3 mg/kg, qd administered with diet for 8 weeks measured after 3 hrs of last dose; type: ADME, organism-based; design: dose 3 mg/kg; conditions: po

Oxysterols receptor LXR-beta, sequence (P55055 whole entry): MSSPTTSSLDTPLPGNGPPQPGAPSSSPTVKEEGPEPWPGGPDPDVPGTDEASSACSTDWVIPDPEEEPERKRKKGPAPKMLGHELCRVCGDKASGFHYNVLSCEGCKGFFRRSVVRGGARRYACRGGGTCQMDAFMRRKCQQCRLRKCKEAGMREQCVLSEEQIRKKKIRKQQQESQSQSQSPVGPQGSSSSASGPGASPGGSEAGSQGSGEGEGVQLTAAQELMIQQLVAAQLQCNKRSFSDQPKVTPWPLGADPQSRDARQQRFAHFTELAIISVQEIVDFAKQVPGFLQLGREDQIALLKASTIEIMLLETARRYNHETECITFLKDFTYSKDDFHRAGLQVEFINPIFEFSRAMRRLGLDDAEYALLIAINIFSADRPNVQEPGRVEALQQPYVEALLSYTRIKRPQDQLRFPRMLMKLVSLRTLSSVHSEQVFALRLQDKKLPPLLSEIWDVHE

Structure (SMILES)	Activity (Mus musculus [1])	Activity [2]	Activity [3]	EC50 [4]	Efficacy (THP-1)	Activity [5]	concentration at 3 h [6]	Activity [7]	Tmax [8]	Activity (Mus musculus [9])	concentration at 3 h [10]
O=C(O)Cc1cccc(OCCCN(Cc2cccc(C(F)(F)F)c2Cl)CC(c2ccccc2)c2ccccc2)c1	Active	–	–	–	–	–	–	–	–	–	–
Cc1nc2c(C(F)(F)F)cccc2nc1-c1ccc(-c2cccc(S(C)(=O)=O)c2)cc1	–	inactive	inactive	> 1 µM	60%	Not Active	1020 ng/mL	inactive	4 h	51%	10800 ng/mL
